From ChEMBL document CHEMBL6096629, “Indolo[3,2-c]isoquinoline Hydroxamic Acid Derivatives as Novel Orally Topoisomerase-Histone Deacetylase Dual Inhibitors for NSCLC Therapy” (J Med Chem, 2025)

Tests used:
[1] = molecular target: Histone deacetylase 1 (Homo sapiens, UniProt Q13547); experiment: Inhibition of HDAC1 (unknown origin)
[2] = test system: Huh-7; experiment: Antiproliferative activity against human Huh-7 cells incubated for 24 hrs by MTT assay; assay type: functional, cell-based; conditions: Huh-7, 24 h
[3] = test system: HCT-116; experiment: cells; assay type: functional, cell-based; conditions: Homo sapiens, HCT-116, 24 h
Description: Antiproliferative activity against human HCT-116 cells incubated for 24 hrs by MTT assay

[4] = test system: NCI-H2228; experiment: Antiproliferative activity against human NCI-H2228 cells incubated for 24 hrs by MTT assay; assay type: functional, cell-based; conditions: NCI-H2228, 24 h
[5] = test system: MDA-MB-231; experiment: cells; assay type: functional, cell-based; conditions: Homo sapiens, MDA-MB-231, 24 h
[6] = test system: PC-3; experiment: Antiproliferative activity against human PC-3 cells incubated for 24 hrs by MTT assay; assay type: functional, cell-based; conditions: PC-3, 24 h
[7] = test system: MCF7; experiment: cells; assay type: functional, cell-based; conditions: Homo sapiens, MCF7, 24 h
Description: Antiproliferative activity against human MCF7 cells incubated for 24 hrs by MTT assay

[8] = test system: Huh-7; experiment: Antiproliferative activity against human Huh-7 cells incubated for 24 hrs in presence of SAHA by MTT assay; assay type: functional, cell-based; conditions: Huh-7, 24 h
[9] = test system: MDA-MB-231; experiment: cells; conditions: Homo sapiens, MDA-MB-231, 24 h
Description: Antiproliferative activity against human MDA-MB-231 cells incubated for 24 hrs in presence of SAHA by MTT assay

[10] = test system: NCI-H2228; experiment: Antiproliferative activity against human NCI-H2228 cells incubated for 24 hrs in presence of SAHA by MTT assay; assay type: functional, cell-based; conditions: NCI-H2228, 24 h
[11] = test system: HCT-116; experiment: cells; conditions: Homo sapiens, HCT-116, 24 h
Description: Antiproliferative activity against human HCT-116 cells incubated for 24 hrs in presence of SAHA by MTT assay

[12] = test system: MCF7; experiment: cells; conditions: Homo sapiens, MCF7, 24 h
Description: Antiproliferative activity against human MCF7 cells incubated for 24 hrs in presence of SAHA by MTT assay

[13] = test system: PC-3; experiment: Antiproliferative activity against human PC-3 cells incubated for 24 hrs in presence of SAHA by MTT assay; assay type: functional, cell-based; conditions: PC-3, 24 h

Sequence of Histone deacetylase 1 (Q13547 whole entry): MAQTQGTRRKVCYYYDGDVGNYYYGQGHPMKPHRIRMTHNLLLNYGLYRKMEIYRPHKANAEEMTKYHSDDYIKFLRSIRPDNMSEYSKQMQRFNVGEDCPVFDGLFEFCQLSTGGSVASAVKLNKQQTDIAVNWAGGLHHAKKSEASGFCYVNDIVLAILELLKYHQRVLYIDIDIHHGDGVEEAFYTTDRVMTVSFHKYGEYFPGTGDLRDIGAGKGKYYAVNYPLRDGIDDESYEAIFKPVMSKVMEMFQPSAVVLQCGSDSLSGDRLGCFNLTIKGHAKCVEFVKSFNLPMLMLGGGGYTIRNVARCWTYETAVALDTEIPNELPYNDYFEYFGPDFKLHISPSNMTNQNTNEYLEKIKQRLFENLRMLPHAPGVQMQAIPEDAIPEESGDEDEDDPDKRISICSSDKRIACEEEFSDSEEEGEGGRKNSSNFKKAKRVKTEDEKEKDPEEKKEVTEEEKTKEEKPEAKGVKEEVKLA

| IC50 [1] | IC50 [2] | IC50 [3] | IC50 [4] | IC50 [5] | IC50 [6] | IC50 [7] | IC50 [8] | IC50 [9] | IC50 [10] | IC50 [11] | IC50 [12] | IC50 [13] | Structure (SMILES) |
| --- | --- | --- | --- | --- | --- | --- | --- | --- | --- | --- | --- | --- | --- |
| 3320 nM | 6.49 µM | 3520 nM | 2170 nM | 4.33 µM | 3.24 µM | 4.11 µM |  |  |  |  |  |  | CCCCNNC(=O)CCCCn1c2cc3c(cc2c2[nH]c(=O)c4ccccc4c21)OCO3 |
| 1720 nM | > 8 µM | > 8000 nM | > 8000 nM | > 8 µM | > 8 µM | > 8 µM |  |  |  |  |  |  | CCCNNC(=O)CCCCCCCn1c2cc3c(cc2c2[nH]c(=O)c4ccccc4c21)OCO3 |
| 640 nM | 2.74 µM | 1310 nM | 1170 nM | 2.62 µM | 0.93 µM | 1.27 µM |  |  |  |  |  |  | CCCNNC(=O)CCCCn1c2cc3c(cc2c2[nH]c(=O)c4ccccc4c21)OCO3 |
| 130 nM | > 8 µM | > 8000 nM | > 8000 nM | > 8 µM | > 8 µM | > 8 µM |  |  |  |  |  |  | CCCNNC(=O)CCCCCCn1c2cc3c(cc2c2ncc4ccccc4c21)OCO3 |
| 500 nM | > 8 µM | 2880 nM | 2840 nM | 5.91 µM | 4.6 µM | > 8 µM |  |  |  |  |  |  | CCCNNC(=O)CCCCCn1c2cc3c(cc2c2[nH]c(=O)c4ccccc4c21)OCO3 |
| 1650 nM | 7.41 µM | 3190 nM | 2390 nM | > 8 µM | 3.56 µM | 4.08 µM |  |  |  |  |  |  | CCNNC(=O)CCCCn1c2cc3c(cc2c2[nH]c(=O)c4ccccc4c21)OCO3 |
|  |  |  |  | 2.87 µM |  |  | 810 nM | 1010 nM | 840 nM | 950 nM | 640 nM | 650 nM | COc1cc([C@@H]2c3cc4c(cc3[C@@H](O[C@@H]3O[C@@H]5CO[C@@H](C)O[C@H]5[C@H](O)[C@H]3O)[C@H]3COC(=O)[C@H]23)OCO4)cc(OC)c1O [ETOPOSIDE] |
| < 2 nM | 6.59 µM | 2680 nM | 4600 nM | 2.22 µM | 2.5 µM | > 8 µM |  |  |  |  |  |  | O=C(CCCCCCCn1c2cc3c(cc2c2ncc4ccccc4c21)OCO3)NO |
| 1090 nM | 6.28 µM | 1500 nM | 2170 nM | 4.45 µM | 1.53 µM | 1.97 µM |  |  |  |  |  |  | CCCNNC(=O)c1ccc(Cn2c3cc4c(cc3c3[nH]c(=O)c5ccccc5c32)OCO4)cc1 |
